Values of other authors as cited in patent US20110124589A1, “INHALED FOSFOMYCIN/TOBRAMYCIN FOR THE TREATMENT OF CHRONIC OBSTRUCTIVE PULMONARY DISEASE” (Gilead Sciences, Inc., priority 2009, published 2011).
In brackets after ≈: the same amount, converted by molar mass.

Tested on: S. aureus
Conditions: 16 isolates; agar dilution; cited from earlier work

SMILES | MIC50
O=C(O)c1cn(C2CC2)c2cc(N3CCNCC3)c(F)cc2c1=O [ciprofloxacin] | > 4 mg/L
CN[C@H](CC(C)C)C(=O)N[C@H]1C(=O)N[C@@H](CC(N)=O)C(=O)N[C@H]2C(=O)N[C@H]3C(=O)N[C@H](C(=O)N[C@H](C(=O)O)c4cc(O)cc(O)c4-c4cc3ccc4O)[C@H](O)c3ccc(c(Cl)c3)Oc3cc2cc(c3O[C@@H]2O[C@H](CO)[C@@H](O)[C@H](O)[C@H]2O[C@H]2C[C@](C)(N)[C@H](O)[C@H](C)O2)Oc2ccc(cc2Cl)[C@H]1O [vancomycin] | 1 mg/L (≈ 0.69 µM)
